Results as given in BindingDB's records for doi:10.1016/j.bmc.2006.07.028 (University of Florence, 2006).

Tests used:
[1] = molecular target: T1, Macrophage metalloelastase (Homo sapiens, UniProt P39900); assay: Dissociation Constants (KD) Measurements; details: pH 7.2; 25 °C
Description: (§1) The NMR experiments were performed to determine the binding affinity (KD) for the MMP-12 catalytic domain. The alteration of the chemical shifts induced on 2D 1H-15N HSQC upon the titration with the test compound was analyzed. The fit of the experimental data as a function of ligand concentration provided dissociation constant.

[2] = molecular target: T1, Macrophage metalloelastase; assay: Dissociation Constants (KD) Measurements and Enzyme Inhibition Assay (IC50); details: pH 7; 25 °C
Description: as §1, with “constant. The inhibition potency (IC50) was measured by fluorescent enzymatic assays. The compounds were evaluated for their ability to inhibit the hydrolysis of fluorescence-quenched peptide substrate. […] Fitting of hydrolysis rate as a function of inhibitor concentration provided IC50.” for “constant.”

Collagenase 3 = Collagenase 3 (Homo sapiens, UniProt P45452); assay: Inhibition Potency Measurements; details: pH 7; 25 °C
Description: (§2) The inhibition potency (IC50) was measured by fluorescent enzymatic assays. The compounds were evaluated for their ability to inhibit the hydrolysis of fluorescence-quenched peptide substrate. […] Fitting of hydrolysis rate as a function of inhibitor concentration provided IC50.

Interstitial collagenase = molecular target: T2, Interstitial collagenase (Homo sapiens, UniProt P03956); assay: Inhibition Potency Measurements; details: pH 7; 25 °C
T2 sequence (P03956 whole entry): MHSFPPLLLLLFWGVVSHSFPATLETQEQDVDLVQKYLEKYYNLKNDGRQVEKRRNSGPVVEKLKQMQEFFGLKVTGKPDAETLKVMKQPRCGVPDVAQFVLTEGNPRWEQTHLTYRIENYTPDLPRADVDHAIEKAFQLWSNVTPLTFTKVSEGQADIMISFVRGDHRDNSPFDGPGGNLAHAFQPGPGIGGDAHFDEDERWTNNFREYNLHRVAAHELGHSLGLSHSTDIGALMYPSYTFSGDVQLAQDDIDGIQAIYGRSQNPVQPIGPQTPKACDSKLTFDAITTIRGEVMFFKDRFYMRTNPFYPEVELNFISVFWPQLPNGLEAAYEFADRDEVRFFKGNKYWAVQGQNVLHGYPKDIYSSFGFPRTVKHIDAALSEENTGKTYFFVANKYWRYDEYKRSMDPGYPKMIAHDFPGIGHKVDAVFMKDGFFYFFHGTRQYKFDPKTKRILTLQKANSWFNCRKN
Description: as §2

Matrilysin = molecular target: T3, Matrilysin (Homo sapiens, UniProt P09237); assay: Inhibition Potency Measurements; details: pH 7; 25 °C
T3 sequence (P09237 whole entry): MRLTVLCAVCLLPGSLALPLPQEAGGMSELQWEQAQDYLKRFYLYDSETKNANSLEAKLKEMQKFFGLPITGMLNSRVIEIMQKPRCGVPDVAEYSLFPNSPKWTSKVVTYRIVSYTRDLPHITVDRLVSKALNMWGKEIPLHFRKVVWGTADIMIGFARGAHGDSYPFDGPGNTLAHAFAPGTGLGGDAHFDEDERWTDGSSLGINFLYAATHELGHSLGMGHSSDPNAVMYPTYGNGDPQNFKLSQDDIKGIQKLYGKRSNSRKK
Description: as §2

Neutrophil collagenase = Neutrophil collagenase (Homo sapiens, UniProt P22894); assay: Inhibition Potency Measurements; details: pH 7; 25 °C
Neutrophil collagenase, sequence (P22894 whole entry): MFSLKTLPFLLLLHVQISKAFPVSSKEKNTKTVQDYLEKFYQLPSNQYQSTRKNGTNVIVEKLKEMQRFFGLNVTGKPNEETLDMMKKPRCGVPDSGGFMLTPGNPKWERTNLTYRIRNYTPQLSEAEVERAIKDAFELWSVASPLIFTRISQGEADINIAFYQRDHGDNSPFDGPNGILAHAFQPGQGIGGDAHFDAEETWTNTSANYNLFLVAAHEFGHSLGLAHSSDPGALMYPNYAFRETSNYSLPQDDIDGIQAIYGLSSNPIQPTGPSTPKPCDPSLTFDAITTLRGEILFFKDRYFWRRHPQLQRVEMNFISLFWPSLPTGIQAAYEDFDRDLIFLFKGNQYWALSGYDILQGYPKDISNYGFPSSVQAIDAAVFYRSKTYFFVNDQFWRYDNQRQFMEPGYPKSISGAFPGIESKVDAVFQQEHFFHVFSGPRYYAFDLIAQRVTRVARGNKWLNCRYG
Description: as §2

Stromelysin-2 = Stromelysin-2 (Homo sapiens, UniProt P09238); assay: Inhibition Potency Measurements; details: pH 7; 25 °C
Stromelysin-2, sequence (P09238 whole entry): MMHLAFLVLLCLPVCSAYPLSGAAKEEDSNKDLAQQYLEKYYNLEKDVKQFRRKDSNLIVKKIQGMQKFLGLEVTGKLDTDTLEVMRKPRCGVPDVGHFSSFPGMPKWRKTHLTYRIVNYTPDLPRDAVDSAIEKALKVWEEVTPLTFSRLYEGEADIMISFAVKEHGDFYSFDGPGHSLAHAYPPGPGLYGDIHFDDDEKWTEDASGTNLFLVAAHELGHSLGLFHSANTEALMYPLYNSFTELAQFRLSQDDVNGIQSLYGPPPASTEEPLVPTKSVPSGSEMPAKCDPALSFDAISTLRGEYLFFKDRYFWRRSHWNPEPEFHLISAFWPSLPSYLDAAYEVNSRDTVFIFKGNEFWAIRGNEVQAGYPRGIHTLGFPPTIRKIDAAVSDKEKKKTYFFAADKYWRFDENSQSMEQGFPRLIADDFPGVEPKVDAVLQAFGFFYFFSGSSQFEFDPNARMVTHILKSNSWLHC
Description: as §2

T1 sequence (P39900 whole entry, the tested form may be a part): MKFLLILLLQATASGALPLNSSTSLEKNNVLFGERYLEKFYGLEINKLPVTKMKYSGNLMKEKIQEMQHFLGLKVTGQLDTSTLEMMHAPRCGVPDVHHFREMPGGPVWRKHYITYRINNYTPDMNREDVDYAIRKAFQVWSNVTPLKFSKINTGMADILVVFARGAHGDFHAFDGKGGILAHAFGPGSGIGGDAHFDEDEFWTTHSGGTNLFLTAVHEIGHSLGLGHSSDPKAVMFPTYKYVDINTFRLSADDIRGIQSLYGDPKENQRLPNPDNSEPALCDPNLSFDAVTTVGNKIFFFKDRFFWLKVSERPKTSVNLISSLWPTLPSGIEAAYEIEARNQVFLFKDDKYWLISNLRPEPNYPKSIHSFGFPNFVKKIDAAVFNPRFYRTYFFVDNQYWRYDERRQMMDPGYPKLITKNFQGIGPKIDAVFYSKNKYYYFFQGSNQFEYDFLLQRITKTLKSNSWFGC

Row | Compound | Kd [1] [µM] | IC50 [2] [µM] | Kd [2] [µM] | further results
1 | O=C(O)[C@@H]1O[C@H]2CN(Cc3ccccc3)C[C@@H]1O2 [(1S,5S,7R)-3-benzyl-6,8-dioxa-3-azabicyclo[3.2.1]octane-7-carboxylic acid] | > 10000 |  |  | 
2 | O=C(NO)[C@@H]1O[C@H]2CN(Cc3ccccc3)C(=O)[C@@H]1O2 [(1R,5S,7R)-3-benzyl-N-hydroxy-2-oxo-6,8-dioxa-3-azabicyclo[3.2.1]octane-7-carboxamide] | > 10000 |  |  | 
3 | O=C(NCc1ccc(-c2ccccc2)cc1)[C@@H]1O[C@H]2CN(C(=O)NO)C[C@@H]1O2 [(1S,5S,7R)-3-N-hydroxy-7-N-[(4-phenylphenyl)methyl]-6,8-dioxa-3-azabicyclo[3.2.1]octane-3,7-dicarboxamide] |  |  |  | IC50 (Collagenase 3): 778 µM; IC50 (Interstitial collagenase): 1180 µM; IC50 (Matrilysin): 1510 µM; IC50 (Neutrophil collagenase): 513 µM; IC50 (Stromelysin-2): 865 µM
4 | CCOC(=O)C1CCN(C(=O)NO)CC1 [ethyl 1-(hydroxycarbamoyl)piperidine-4-carboxylate] | 3400 |  |  | 
5 | O=C(O)[C@@H]1O[C@H]2CN(Cc3ccccc3)C(=O)[C@@H]1O2 [(1R,5S,7R)-3-benzyl-2-oxo-6,8-dioxa-3-azabicyclo[3.2.1]octane-7-carboxylic acid] | > 10000 |  |  | 
6 | O=C(O)[C@@H]1O[C@H]2CN(Cc3ccc(-c4ccccc4)cc3)C(=O)[C@@H]1O2 [(1R,5S,7R)-2-oxo-3-[(4-phenylphenyl)methyl]-6,8-dioxa-3-azabicyclo[3.2.1]octane-7-carboxylic acid] |  | 954 | > 1000 | 

Further lines, with some results ahead:

Row | Kd [1] [µM] | IC50 [2] [µM] | Kd [2] [µM] | Compound | further results
7 |  | 425 | > 500 | O=C(NO)[C@@H]1O[C@H]2CN(Cc3ccc(-c4ccccc4)cc3)C(=O)[C@@H]1O2 [(1R,5S,7R)-N-hydroxy-2-oxo-3-[(4-phenylphenyl)methyl]-6,8-dioxa-3-azabicyclo[3.2.1]octane-7-carboxamide] | 
8 |  | 399 | > 500 | O=C(NO)[C@@H]1O[C@H]2CN(Cc3ccc(-c4ccccc4)cc3)C[C@@H]1O2 [(1S,5S,7R)-N-hydroxy-3-[(4-phenylphenyl)methyl]-6,8-dioxa-3-azabicyclo[3.2.1]octane-7-carboxamide] | 
9 |  | 835 | > 1000 | O=C(O)[C@@H]1O[C@H]2CN(Cc3ccc(-c4ccccc4)cc3)C[C@@H]1O2 [(1S,5S,7R)-3-[(4-phenylphenyl)methyl]-6,8-dioxa-3-azabicyclo[3.2.1]octane-7-carboxylic acid] | 
